Measured values reported in patent publication US20200255367A1, “Diesters for Personal Care Applications Derived from 1-Methylheptyl Alcohol” (Inolex Investment Corporation, priority 2016, published 2020).

Columns and labels:
[1] = Kinematic viscosity at 25° C., ASTM method; type: physicochemical
Protocol: Kinematic viscosity was tested at 25° C. using ASTM (American Society of Testing and Materials, West Conshohocken, Pa., USA) official method number D-44515a.

[2] = Moisture content by Karl-Fischer; type: physicochemical
Protocol: Moisture content (% HOH) was measured using an automatic volumetric Karl-Fischer device, the Aquastar AQV21 (Gibbstown, N.J., USA.)

[3] = Acid value (AV), ASTM method; type: physicochemical
Protocol: Acid value (AV) was measured using ASTM official method number D-974-1 ? .

[4] = Color, ASTM D-1209; type: physicochemical
Protocol: Color was measured using ASTM D-1209-05(2001 reapproved), and flash point was determined using ASTM D-92-12b.

[5] = 60° C.; cited from earlier work

Kinematic Viscosity [1] [cSt]	Moisture [2] [wt. %]	Acid value [3] [mg KOH/g]	Color [4] [APHA]	Structure (SMILES)	alkaline hydrolysis rate constant (kOH) [5] [M⁻¹ s⁻¹]
7.2	0.01	0.05	17	CCCCCCC(=O)OCC(C)(C)COC(=O)CCCCCC [neopentyl glycol diheptanoate]	–
12.0	0.01	0.01	12	CCCCCCC(C)OC(=O)CCC(=O)OC(C)CCCCCC (stereo not shown) [bis(1-methylheptyl) butanedioate]	–
–	–	–	–	CCOC(=O)c1ccccc1 [ethyl benzoate]	0.258
–	–	–	–	CC(C)OC(=O)c1ccccc1 [isopropyl benzoate]	0.0533
